Measured values: patent publication US5763444A, “Antidepressant 1-arylalkyl-4-(alkoxy pyridinyl)-and 4-(alkoxypyrimidinyl) piperazine derivatives” (Bristol-Myers Squibb Company, priority 1996, dated 1998)
Where a name gives a salt, the structure may show the parent alone.

Biological target: T1, synaptosomal serotonin uptake (Rattus norvegicus, UniProt P31652)
T1 construct: from tissue
Experiment: inhibition of synaptosomal reuptake of tritiated serotonin (5-HT inhibition assay)
Format: biochemical
Design: key: *: Compounds designated with an asterisk are most preferred, based on abilities to inhibit synoptosomal serotonin uptake
Settings: among compounds with IC50 less than 100 nM
Experimental: Determination of endogenous monoaminergic re-uptake inhibition values both for serotonin and norepinephrine was accomplished using test methods described by P. Skolnick, et al., Br. J. Pharmacology, (1985), 86, pp. 637-644; with only minor modifications. In vitro IC50 (nM) test values were determined for representative compounds of Formula I based on their inhibition of synaptosomal re-uptake of tritiated serotonin.
Compounds of the invention were tested for their ability to inhibit serotonin reuptake. Determination of endogenous monoaminergic reuptake inhibition values for serotonin was accomplished using test methods described by P. Skolnick et al., Br. J. Pharmacology (1985), 86, pp. 637-644; with only minor modifications.
In vitro IC50 (nM) test values were determined for representative compounds of Formula I based on their inhibition of synaptosomal reuptake of tritiated serotnin.

T1 sequence (P31652 whole entry): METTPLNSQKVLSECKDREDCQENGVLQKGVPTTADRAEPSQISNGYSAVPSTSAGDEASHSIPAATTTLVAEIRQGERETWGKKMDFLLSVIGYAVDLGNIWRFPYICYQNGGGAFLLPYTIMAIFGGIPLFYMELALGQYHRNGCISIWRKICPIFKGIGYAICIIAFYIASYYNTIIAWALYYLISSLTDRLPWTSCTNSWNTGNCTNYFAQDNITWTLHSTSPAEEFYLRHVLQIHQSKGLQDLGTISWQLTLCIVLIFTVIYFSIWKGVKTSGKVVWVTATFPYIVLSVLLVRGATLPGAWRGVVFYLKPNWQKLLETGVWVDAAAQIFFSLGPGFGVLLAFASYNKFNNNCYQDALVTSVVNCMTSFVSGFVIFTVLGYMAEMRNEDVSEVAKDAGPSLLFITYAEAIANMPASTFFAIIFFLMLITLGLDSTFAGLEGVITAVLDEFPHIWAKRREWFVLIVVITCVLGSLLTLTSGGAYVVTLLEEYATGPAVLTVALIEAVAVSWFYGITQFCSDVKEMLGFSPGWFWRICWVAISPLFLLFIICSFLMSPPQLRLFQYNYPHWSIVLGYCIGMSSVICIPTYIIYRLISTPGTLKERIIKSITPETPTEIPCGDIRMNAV

| Structure (SMILES) | asterisk designation: most preferred, based on ability to inhibit synaptosomal serotonin uptake |
| --- | --- |
| COc1cncnc1N1CCN(CCCc2csc3ccccc23)CC1.Cl [Example 59, 1-[3-(benzo[b]thien-3-yl)propyl]-4-(5-methoxy-4-pyrimidinyl)piperazine hydrochloride] | * |
| COc1cccnc1N1CCN(CCc2csc3ccccc23)CC1.Cl [Example 57, 1-[2-(benzo[b]thien-3-yl)ethyl]-4-(3-methoxy-2-pyridinyl)piperazine hydrochloride] | * |
| COc1cccnc1N1CCN(CCC2CSc3ccccc32)CC1.Cl (stereo not shown) [Example 17, 1-[2-(2,3-dihydro-benzo[b]thien-3-yl)ethyl]-4-(3-methoxy-2-pyridinyl)piperazine hydrochloride] | * |
| COc1cc(Cl)cnc1N1CCN(CCCc2csc3ccccc23)C(C)C1.Cl (stereo not shown) [Example 60, 1-[3-(benzo[b]thien-3-yl)propyl]-4-(5-chloro-3-methoxy-2-pyridinyl)-2-methylpiperazine hydrochloride] | * |
| COc1cncnc1N1CCN(CCCc2csc3ccccc23)CC1C.Cl (stereo not shown) [Example 51, 1-[3-(benzo[b]thien-3-yl)propyl]-4-(5-methoxy-4-pyrimidinyl)-3-methylpiperazine hydrochloride] | * |
| COc1cncnc1N1CCN(CCCc2csc3ccc(C#N)cc23)CC1.Cl [Example 65, 1-[3-(5-cyanobenzo[b]thien-3-yl)propyl]-4-(5-methoxy-4-pyrimidinyl)piperazine hydrochloride] | * |
| COc1cccnc1N1CCN(CCCc2coc3ccccc23)CC1.Cl [Example 31, 1-[3-(benzo[b]furan-3-yl)propyl]-4-(3-methoxy-2-pyridinyl)piperazine hydrochloride] | * |
| COc1cccnc1N1CCN(CCCC2CSc3ccccc32)C(C)C1 (stereo not shown) [Example 7, hydrochloride] | * |
| COc1cccnc1N1CCN(CCc2coc3ccccc23)CC1.Cl [Example 33, 1-[2-(benzo[b]furan-3-yl)ethyl]-4-(3-methoxy-2-pyridinyl)piperazine hydrochloride] | * |
| COc1cccnc1N1CCN(CCCc2coc3ccc(F)cc23)CC1.Cl [Example 20, 1-[3-(5-fluorobenzo[b]furan-3-yl)propyl]-4-(3-methoxy-2-pyridinyl)piperazine hydrochloride] | * |
| COc1cncnc1N1CCN(CCc2csc3ccccc23)CC1C.Cl (stereo not shown) [Example 64, 1-[2-(benzo[b]thien-3-yl)ethyl]-4-(5-methoxy-4-pyrimidinyl)-3-methylpiperazine hydrochloride] | * |
| COc1cccnc1N1CCN(CCCc2csc3ccccc23)CC1.O=C(O)/C=C/C(=O)O [Example 56, 1-[3-(benzo[b]thien-3-yl)propyl]-4-(3-methoxy-2-pyridinyl)piperazine fumarate] | * |
| COc1cccnc1N1CCN(CCCc2coc3ccc(Cl)cc23)CC1.Cl [Example 25, 1-[3-(5-chlorobenzo[b]furan-3-yl)propyl]-4-(3-methoxy-2-pyridinyl)piperazine hydrochloride] | * |
| COc1cncnc1N1CCN(CCCc2coc3ccccc23)CC1C.Cl (stereo not shown) [Example 28, 1-[3-(benzo[b]furan-3-yl)propyl]-4-(5-methoxy-4-pyrimidinyl)-3-methylpiperazine hydrochloride] | * |
| COc1cncnc1N1CCN(CCCc2csc3ccc(F)cc23)CC1.Cl [Example 52, 1-[3-(5-fluorobenzo[b]thien-3-yl)propyl]-4-(5-methoxy-4-pyrimidinyl)piperazine hydrochloride] | * |
| COc1cncnc1N1CCN(CCCc2csc3ccc(F)cc23)C(C)C1.Cl (stereo not shown) [Example 63, 1-[3-(5-fluorobenzo[b]thien-3-yl)propyl]-4-(5-methoxy-4-pyrimidinyl)-2-methylpiperazine hydrochloride] | * |
| COc1cncnc1N1CCN(CCCc2csc3ccccc23)C(C)C1.Cl (stereo not shown) [Example 50, 1-[3-(benzo[b]thien-3-yl)propyl]-4-(5-methoxy-4-pyrimidinyl)-2-methylpiperazine hydrochloride] | * |
| COc1cccnc1N1CCN(CCCc2csc3ccccc23)C(C)C1.Cl (stereo not shown) [Example 41, 1-[3-(benzo[b]thien-3-yl)propyl]-4-(3-methoxy-2-pyridinyl)-2-methylpiperazine hydrochloride] | * |
| COc1cncnc1N1CCN(CCCc2coc3ccc(C)cc23)C(C)C1.Cl (stereo not shown) [Example 30, 1-[3-(5-methylbenzo[b]furan-3-yl)propyl]-4-(5-methoxy-4-pyrimidinyl)-2-methylpiperazine hydrochloride] | * |
| COc1cncnc1N1CCN(CCCc2csc3ccc(F)cc23)CC1C.Cl (stereo not shown) [Example 55, 1-[3-(5-fluorobenzo[b]thien-3-yl)propyl]-4-(5-methoxy-4-pyrimidinyl)-3-methylpiperazine hydrochloride] | * |
| COc1cccnc1N1CCN(CCc2csc3ccccc23)C(C)C1.Cl (stereo not shown) [Example 58, 1-[2-(benzo[b]thien-3-yl)ethyl]-4-(3-methoxy-2-pyridinyl)-2-methylpiperazine hydrochloride] | * |
| COc1cccnc1N1CCN(CCCc2coc3ccc(C)cc23)CC1.Cl [Example 29, 1-[3-(5-methylbenzo[b]furan-3-yl)propyl]-4-(3-methoxy-2-pyridinyl)piperazine hydrochloride] | * |
| COc1cncnc1N1CCN(CCCc2coc3ccc(Cl)cc23)C(C)C1.Cl (stereo not shown) [Example 27, 1-[3-(5-chlorobenzo[b]furan-3-yl)propyl]-4-(5-methoxy-4-pyrimidinyl)-2-methylpiperazine hydrochloride] | * |
| COc1cccnc1N1CCN(CCC2CSc3ccccc32)C(C)C1.Cl (stereo not shown) [Example 6, 1-[2-(2,3-dihydro-benzo[b]thien-3-yl)ethyl]-4-(3-methoxy-2-pyridinyl)-2-methylpiperazine hydrochloride] | * |
| COc1cncnc1N1CCN(CCCc2coc3ccccc23)C(C)C1 (stereo not shown) [Example 32, 1-[3-(benzo[b]furan-3-yl)propyl]-4-(5-methoxy-4-pyrimidinyl-2-methylpiperazine hydrochloride] | * |
